According to patent US8809270B2, “Method for reducing cardiovascular morbidity and mortality in prediaetic patients and patients with type 2 diabetes” (priority 2003, dated 2014):
Entries after “also recorded” stand apart in the source; their conditions may differ.

Assays:
[1] = tested on: individuals with IGT, IFG, or mild untreated type 2 diabetes; assay: Study HOE901/1021: blood glucose response to 15-minute stationary bicycle exercise; set-up: species or system human; conditions: in vivo
Protocol: The study was conducted at three centers in the US. After screening tests, including fasting plasma glucose (FPG) and post prandial plasma glucose (PPG; two hours following a 75 g oral glucose load) for classification as IGT, IFG, diabetic, or normal glucose tolerance (NGT), and after satisfying other inclusion criteria including the ability to perform moderate exercise on a stationary bicycle, subjects were admitted to an inpatient study center. They were confined there for the next 15 days, during which time they were randomly assigned to receive either HOE901 once per day subcutaneously in the evening, or matching placebo (saline) injections in a 3:1 randomization (HOE901:placebo). Baseline assessments included a 5-point (before each meal, bedtime, and 3 AM) and 8-point (5-point plus readings 2 hours after each meal) blood glucose profile on separate days, and 15 minutes of exercise on a stationary bicycle at a level of exertion of “somewhat hard” on the Borg scale with blood glucose values monitored during and for 3 hours following the exercise. Each subject received a 25 kCal/kg diet while confined in the study center. Capillary whole blood glucose values were recorded on HemoCue devices. Episodes of hypoglycemia (blood glucose 50 mg/dL [2.8 mM] or symptoms with blood glucose 65 mg/dL [3.6 mM]) were recorded. […]

[2] = tested on: individuals with IGT, IFG, or mild untreated type 2 diabetes; assay: Study HOE901/1021: adverse events and hypoglycemia; type: in vivo, human
Protocol: (§1) The study was conducted at three centers in the US. After screening tests, including fasting plasma glucose (FPG) and post prandial plasma glucose (PPG; two hours following a 75 g oral glucose load) for classification as IGT, IFG, diabetic, or normal glucose tolerance (NGT), and after satisfying other inclusion criteria including the ability to perform moderate exercise on a stationary bicycle, subjects were admitted to an inpatient study center. They were confined there for the next 15 days, during which time they were randomly assigned to receive either HOE901 once per day subcutaneously in the evening, or matching placebo (saline) injections in a 3:1 randomization (HOE901:placebo). Baseline assessments included a 5-point (before each meal, bedtime, and 3 AM) and 8-point (5-point plus readings 2 hours after each meal) blood glucose profile on separate days, and 15 minutes of exercise on a stationary bicycle at a level of exertion of “somewhat hard” on the Borg scale with blood glucose values monitored during and for 3 hours following the exercise. Each subject received a 25 kCal/kg diet while confined in the study center. Capillary whole blood glucose values were recorded on HemoCue devices. Episodes of hypoglycemia (blood glucose 50 mg/dL [2.8 mM] or symptoms with blood glucose 65 mg/dL [3.6 mM]) were recorded.
Treatment-emergent adverse events (TEAEs) occurred in 10 subjects in the HOE901 group (16 events) vs. 2 in the placebo group (5 events). Each event occurred in only 1 individual except for headache, which occurred in 3 HOE901 subjects. Only 2 HOE901 subjects and 1 placebo subject had events that were considered by investigators as possibly related to study drug. The HOE901 events were 2 episodes of headache, and one of hypoglycemia. The two headaches occurred in subjects who had hypoglycemic events on the same days and at approximately the same time as the headaches. […] Subject 3011 (who reported dizziness as an adverse event during screening) was removed from the study by the sponsor prior to receiving any study drug dose because of hypoglycemia that occurred during screening.
Only mild hypoglycemia occurred in 4 out of 16 subjects treated with HOE901 in this study. These hypoglycemic events generally occurred before lunch or supper, and resolved promptly with oral caloric intake. No episodes of hypoglycemia occurred in relation to exercise. Although the calorie-restricted diet subjects consumed during this study doubtless played a role in the occurrence of these events, the diet was typical in size for what is recommended to these frequently overweight individuals. […] Hypoglycemia can occur, but is manageable not related to exercise, and detectable with the aid of home glucose monitoring.

[3] = in vivo; cited from earlier work
[4] = Multiple-dose pharmacokinetic study (Study 1020); type: in vivo; conditions: 2 days of treatment
Source text: Treatment with Lantus® LANTUS (insulin glargine) insulin offers the possibility of a smooth, daylong, blood insulin profile without a definite peak that can be finely titrated to lower subjects' FPG in a durable manner, while minimizing the risk of hypoglycemia at other times of day.

[5] = tested on: people with impaired glucose tolerance (IGT) or impaired fasting glucose (IFG), mild type 2 diabetes; assay: Study HOE901/1021: fasting and 8-point blood glucose profiles, bedtime dose titration; type: in vivo, human
Source text: Study HOE901/1021 was a randomized, single-blind (pharmacist-unblinded), inpatient, dose-titration study designed to examine the safety and efficacy of HOE901 given once a day subcutaneously at bedtime in a novel population: people with impaired glucose tolerance (IGT) or impaired fasting glucose (IFG). It was conceived as a pilot study for a large international trial of HOE901 in a dysglycemic population of IGT, IFG, and early type 2 diabetes in order to investigate dosing in the prediabetic (IFG/IGT) population for the first time. Of special interest was the incidence of hypoglycemia during the study.
as §1
Once randomized, subjects' bedtime doses of study drug were titrated to achieve a fasting blood glucose (FBG) of 80-95 mg/dL [4.4 mM-5.3 mM]. Dose increases were based on FBG values and were performed every 2 days. Subjects remained at the site until the end of the confinement period, regardless of when target FBG levels were achieved. Five-point blood glucose profiles were performed every other day, with 8-point blood glucose profiles performed on alternate days. At endpoint all baseline procedures, including an 8-point blood glucose profile, and an exercise assessment, were repeated.

[6] = tested on: US/Canada type 2 diabetic patients; assay: Treat-to-Target study: hypoglycemia, bedtime LANTUS vs. NPH insulin; type: in vivo, human; conditions: single bedtime dose
Protocol: The ideal basal insulin might be expected to be less worrisome from this standpoint because the circulating insulin produced would target blood glucose elevations throughout the day rather than mealtime fluctuations. […] The “Treat-to-Target” study ^38 in US/Canada type 2 diabetic patients investigated whether a single bedtime dose of Lantus® LANTUS (insulin glargine) vs. NPH insulin (a moderate- to long-acting insulin with a pronounced peak in plasma activity for 4 to 8 hours after injection)^39 would achieve target metabolic control without increasing nocturnal hypoglycemia.
Insulin has features that make it especially useful in the patient with pronounced diabetic dyslipidemia, as compared to the oral antidiabetic agents usually used as initial pharmacotherapy. […] NPH insulin despite having a prolonged duration of action, has a pronounced peak effect from 3-6 hours after injection, rendering it less suitable in the management of the patient with milder diabetes due to the risk for hypoglycemia.

[7] = tested on: type 2 diabetic patients already treated with other oral antidiabetic drugs; assay: Study 4014: lipid data, LANTUS versus rosiglitazone; type: in vivo, human; set-up: Triglycerides % reduction from baseline / Triglycerides % reduction from baseline, LANTUS-AVANDIA / Non-HDL Cholesterol Total % reduction from baseline: concentration or dose not given beside the values; Triglycerides Baseline / Triglycerides Endpoint: unit not given beside the values; conditions: for Triglycerides % reduction from baseline, LANTUS-AVANDIA / Triglycerides change at endpoint, LANTUS-AVANDIA: LANTUS minus AVANDIA

With insulin glargine [LANTUS] the “hypoglycemic events during exercise” value [1] was “no hypoglycemic events”, the “Treatment-emergent adverse events (TEAEs), events” value ([2]; in vivo) was 16 events and the “Treatment-emergent adverse events (TEAEs), subjects” value ([2]; in vivo) was 10 subjects. For the same substance, the headache ([2]; in vivo) was 3 subjects, the safety and tolerability ([2]; in vivo) was “safe and well tolerated” and the serious adverse events ([2]; in vivo) was “no serious adverse events”. For the same substance, the “subjects with events considered by investigators as possibly related to study drug” value ([2]; in vivo) was 2 subjects, the mild hypoglycemia ([2]; out of 16 subjects treated) was 4 subjects and the duration of action [3] was “up to 24 hour”. For the same substance, the “doses to reach steady-state levels” value [4] was 2 doses, the “Mean FBG” value ([5]; Day 12 (endpoint)) was 85.6 mg/dL and the “Mean FBG” value ([5]; Day −1 (baseline)) was 98.1 mg/dL. For the same substance, the “reduction in mean daylong blood glucose” value ([5]; Day −1 to Day 12) was 8.8 mg/dL, the “subjects who had reached an FPG of 100 mg/dL” value ([5]; by Day 12) was “All but 2” and the “subjects who had reached the FBG target of 95 mg/dL or less” value ([5]; by Day 12) was “all but 4”. The “hypoglycemia vs. NPH” value [6] was “significant reductions in nocturnal hypoglycemia; also recorded: significant advantages over NPH in hypoglycemia”, the “HDL Baseline” value ([7]; TG baseline range 200-500) was 38 and the “HDL Endpoint” value ([7]; TG baseline range 200-500) was 40. The “LDL Baseline” value ([7]; TG baseline range 200-500) was 115, the “LDL Endpoint” value ([7]; TG baseline range 200-500) was 111 and the “Non-HDL Cholesterol Total Baseline” value ([7]; TG baseline range 200-500) was 168. The “Non-HDL Cholesterol Total Endpoint” value ([7]; TG baseline range 200-500) was 152, the “Triglycerides % reduction from baseline” value ([7]; TG baseline range 200-500) was 18% and the “Triglycerides Baseline” value ([7]; TG baseline range 200-500) was 285. The “Triglycerides Endpoint” value ([7]; TG baseline range 200-500) was 234, the “Triglycerides % reduction from baseline, LANTUS-AVANDIA” value ([7]; TG baseline range 200-500) was 18% and the “Triglycerides change at endpoint, LANTUS-AVANDIA” value ([7]; TG baseline range 200-500) was 47.7. For the same substance, the “HDL Baseline” value ([7]; TG baseline range 300-500) was 32, the “HDL Endpoint” value ([7]; TG baseline range 300-500) was 34 and the “Non-HDL Cholesterol Total % reduction from baseline” value ([7]; TG baseline range 300-500) was 4%. The “Non-HDL Cholesterol Total Baseline” value ([7]; TG baseline range 300-500) was 156, the “Non-HDL Cholesterol Total Endpoint” value ([7]; TG baseline range 300-500) was 150 and the “Triglycerides % reduction from baseline” value ([7]; TG baseline range 300-500) was 27%. The “Triglycerides Baseline” value ([7]; TG baseline range 300-500) was 380, the “Triglycerides Endpoint” value ([7]; TG baseline range 300-500) was 277 and the “Triglycerides % reduction from baseline, LANTUS-AVANDIA” value ([7]; TG baseline range 300-500) was 18%. For the same substance, the “Triglycerides change at endpoint, LANTUS-AVANDIA” value ([7]; TG baseline range 300-500) was 68.5, the “HDL Baseline” value ([7]; TG baseline range 500-1000) was 28 and the “HDL Endpoint” value ([7]; TG baseline range 500-1000) was 29. For the same substance, the “Non-HDL Cholesterol Total Baseline” value ([7]; TG baseline range 500-1000) was 178, the “Non-HDL Cholesterol Total Endpoint” value ([7]; TG baseline range 500-1000) was 153 and the “Triglycerides Baseline” value ([7]; TG baseline range 500-1000) was 817. For the same substance, the “Triglycerides Endpoint” value ([7]; TG baseline range 500-1000) was 494.
